Values joined by “and” are separate entries in the source; they are usually repeats but may differ in a detail not shown here. Identical values can stand only once. Like-named read-outs stand apart in the source and are kept apart here.
Tests used:
HIV-1 protease = HIV-1 protease (Human immunodeficiency virus type 1 group M subtype B, UniProt P04585); test: biochemical
Procedure, shortened: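 Percent inhibition came from fluorescence of FITC-tagged cleavage product, separated by filtration from uncleaved substrate captured on streptavidin-coated beads. The enzyme (10 μl of 0.1 μM) and compound acted on a biotin/FITC dual-labelled peptide for one hour at room temperature in the dark. The reaction ran in 0.1 M sodium acetate, pH 5.5, with 1.0 M NaCl and 0.05% NP-40.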

[1] = target: T1, single chain tethered (tandem) HIV protease (HIV-1 M:B_HXB2R, UniProt P04585); test: Tandem HIV protease assay; assay type: biochemical; settings: read-out: FITC KI; Table II; enzyme HIV1TANDEM
T1 construct: purified enzyme, FITC/biotin substrate assay
Procedure, shortened: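 Covalently tethered single-chain HIV protease dimer allows very low enzyme levels for Ki measurement. N-biotinylated, C-fluorescein-labelled peptide substrate incubated with enzyme and inhibitor at pH 5.5 in the dark for 96 h; streptavidin beads stop reaction, cleaved product filtered off and residual fluorescence fitted to obtain Ki.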

[2] = Table II, enzyme HIV-1, DOSE 0.123 (unit not given)
[3] = Table II, enzyme HIV-1, DOSE 0.370 (unit not given)
[4] = Table II, enzyme HIV-1, DOSE 1.100 (unit not given)
[5] = Table II, enzyme HIV-1, DOSE 3.300 (unit not given)
[6] = Table II, enzyme HIV-1, DOSE 10.000 (unit not given)
[7] = Table II, enzyme HIV-1, DOSE 30.000 (unit not given)

| SMILES | PROTEASE % INHIB. (HIV-1 protease; [2]) | PROTEASE % INHIB. (HIV-1 protease; [3]) | PROTEASE % INHIB. (HIV-1 protease; [4]) | PROTEASE % INHIB. (HIV-1 protease; [5]) | PROTEASE % INHIB. (HIV-1 protease; [6]) | PROTEASE % INHIB. (HIV-1 protease; [7]) | Ki [1] | PROTEASE % INHIB. (HIV-1 protease) |
| --- | --- | --- | --- | --- | --- | --- | --- | --- |
| CCC[C@@]1(CCc2ccc(F)cc2)CC(O)=C([C@@H](c2cccc(NS(=O)(=O)c3ccc(N)cn3)c2)C(C)(C)C)C(=O)O1 (single isomer, unassigned) [Example 317, 5-Amino-N-[3(R or S)-(1-[6(R or S)-(2-[4-fluorophenyl]ethyl)-5,6-dihydro-4-hydroxy-2-oxo-6-propyl-2H-pyran-3-yl]-2,2-dimethyl-propyl)phenyl]-2-pyridine-sulfonamide] | 87.38% | 94.14% | 98.45% | 95.97% | 101.26% | 108.59% | 0.04 nM | – |
| Cn1cnc(S(=O)(=O)Nc2cccc(C(C3=C(O)CC(CCc4ccccc4)(CCC(F)(F)F)OC3=O)C(C)(C)C)c2)c1 (single isomer, unassigned) [Example 273, N-[3-(R or S)-[1-[5,6-dihydro-4-hydroxy-2-oxo-6-(R or S)-(2-phenethyl)-6-(3,3,3-trifluoropropyl)-2H-pyran-3-yl]-2,2-dimethylpropyl]phenyl]-1-methyl-1H-imidazole-4-sulfonamide] | < 10% | 23.24% | 75.38% | 94.63% | 95.93% | 91% | 2.3 nM | – |
| CCC[C@]1(CCc2ccccc2)CC(O)=C([C@H](CC)c2cccc(NS(=O)(=O)c3cn(C)cn3)c2)C(=O)O1 (single isomer, unassigned) [Example 340, N-[3-{1(R or S)-(4-Hydroxy-5,6-dihydro-2-oxo-6(S or R)-phenethyl-6-propyl-2H-pyran-3-yl)propyl}phenyl]-1-methyl-1H-imidazole-4-sulfonamide] | – | – | – | – | – | – | 0.06 nM | 80.58 and 90.49 and 90.16 and 91.57 and 89.49 and 71.99 |
| CCCC1(CCC)CC(O)=C(C(c2cccc(NS(=O)(=O)c3ccc(C(F)(F)F)cn3)c2)C(C)(C)C)C(=O)O1 (single isomer, unassigned) [Example 286, 5-Trifluoromethyl-N-[3-(R or S)-[1-[4-hydroxy-2-oxo-6,6-di-n-propyl-5,6-dihydro-2H-pyran-3-yl]-2,2-dimethylpropyl]-phenyl]1-2-pyridinesulfonamide] | 34.76% | 68.74% | 89.29% | 93.11% | 108.17% | 95.31% | 13.3 nM | – |
| CCC[C@@]1(CCc2ccccc2)CC(O)=C([C@H](CC)c2cccc(NS(=O)(=O)c3cn(C)cn3)c2)C(=O)O1 (single isomer, unassigned) [Example 339, N-[3-{1(R or S)-(4-Hydroxy-5,6-dihydro-2-oxo-6(R or S)-phenethyl-6-propyl-2H-pyran-3-yl)propyl}phenyl]-1-methyl-1H-imidazole-4-sulfonamide] | – | – | – | – | – | – | 0.12 nM | 83.49 and 100.6 and 101.42 and 104.71 and 91.38 and 72.86 |
| CCC[C@]1(CCc2ccccc2)CC(O)=C([C@@H](CC)c2cccc(NS(=O)(=O)c3ccc(C#N)cn3)c2)C(=O)O1 (single isomer, unassigned) [Example 338, N-[3-{1(S or R)-(4-Hydroxy-5,6-dihydro-2-oxo-6(S or R)-phenethyl-6-propyl-2H-pyran-3-yl)propyl]phenyl]-5-cyano-pyridine-2-sulfonamide] | – | – | – | – | – | – | 0.1 nM | 61.74 and 85.32 and 80.46 and 89.62 and 83.53 and 62.34 |
